The test system of one data set is MCF-7 cells. Description: Determination of endocytosis pathways in MCF-7 cells. The conditions noted are these: CPZ 10 μM, AMI 1 mM, DOX 2 μM, 2 h. The data set is classed as cell-based, human. The procedure:
MCF-7 cells were seeded in 6-well plates (1×10^4 cells per well) and culture for 48 h. […] Then the cells were incubated with DOX/FA-NCl/NCa at DOX concentration of 2 μM or FA-NCI/AF488-NCa of the same concentration in the presence of the inhibitors for another 2 h. After washing the cells by 4° C. PBS twice, the cells were lysed with Pierce IP lysis buffer (Thermo Scientific) and centrifuged. Fluorescence of DOX and AF488 and protein concentration in the supernatant were measured, respectively, by a microplate reader (Infinite […], Tecan).

A further data set relates to U2OS.EGFP cells. Put plainly: Determination of endocytosis pathways in U2OS.EGFP cells. The data set is classed as cell-based, human. The conditions noted are these: MCD 3 mM, AMI 1 mM, flow cytometry. The procedure:
U2OS.EGFP cells were seeded in 24-well plates (˜25000 cells/well) and cultured for 2 d. Then the cells were pre-incubated with several endocytosis inhibitors^[19b], such as chlorpromazine (CPZ, 10 μM) for clathrin-mediated endocytosis, nystatin (NYS, 25 μg/mL) for caveolin-mediated endocytosis, methyl-β-cyclodextrin (MCD, 3 mM) for lipid raft and amiloride (AMI, 1 mM) for macropinocytosis, for 1 h at 37° C., respectively. Afterwards, the cells were incubated with AF647-Cas9/sgRNA/NC/PEI for another 2 h in the presence of the inhibitors. Cells were then washed, trypsinized and resuspended in full serum medium, intracellular AF647 fluorescence intensities were analyzed by flow cytometry.
For orientation: Flow cytometry measures light scatter and fluorescence of single cells or particles in a stream.

Data set [1] in a line: Stability of DNA NC incubated with Cas9/sgRNA (agarose gel). The following applies: Cas9/sgRNA 24 h. The data set is classed as physicochemical. The procedure: The DNA NCs were prepared by RCA using cyclized single stranded DNA (ssDNA) templates. 5′ phosphorylated linear ssDNA templates (FIG. 21) were cyclized by CircLigase II ssDNA ligase (Epicentre) following manufacture's instructions. Unligated ssDNA chains were removed with 1 U Exo I (NEB) at 37° C. for 45 min followed by heat inactivation at 80° C. for 15 min. The cyclized ssDNA template (10 pmol) was added into 1 mL 1× isothermal amplification buffer (NEB) together with 0.5 μM primer and 200 μM dNTP and heated to 95° C. for 5 min. After hybridizing the template and primer by cooling the mixture to room temperature, Bst 2.0 DNA polymerase (0.2 U/μL) was added to initiate the RCA. The RCA was performed at 65° C. overnight and the denatured polymerase after the reaction was removed by centrifugation at 14,000×g for 2 min. […] The synthesized DNA NCs were analyzed by 0.8% agarose gel electrophoresis and Nanodrop 2000C (Thermal Scientific) was applied to measure the concentration and purity of the DNA NC. […] Zeta potential and particle size of NC were measured with a Zetasizer (Malvern). To image the NC by atomic force microscopy (AFM), the NC was dropped and dried onto a silicon wafer (Ted Pella) and analyzed on a Nanoscope AFM instrument (Veeco, Santa Barbara, Calif.) using tapping mode in ambient air.

The subject of data set [2] is EGFP gene in U2OS.EGFP cells. Description: EGFP gene disruption assay in U2OS.EGFP cells (fluorescence microscopy, flow cytometry). The conditions noted are these: NC-23, NC-12, NC-0 coated with PEI; different Cas9/sgRNA molar ratios. The data set is classed as cell-based, human. As to the method:
The reporter cell line U2OS.EGFP with a single copy of destabilized EGFP gene integrated into the genome was a generous gift from Dr. J Keith Joung at Massachusetts General Hospital.^[6b] The cells were cultured in a 37° C. incubator under 5% CO2 and 90% humidity with full serum medium: Dulbecco's Modified Eagle's Medium supplemented with 10% (v/v) FBS, 2 mM GlutaMAX (Life Technologies), penicillin (100 U/mL) and streptomycin (100 μg/mL). U2OS.EGFP cells were seeded into 24-well plates (˜25,000 cells per well) one day before the transfection. […] Two days after the delivery, the cells were analyzed using a fluorescent microscope (IX71, Olympus). For the flow cytometry analysis, the cells were washed with ice cold PBS twice and trypsinized with 0.05% trypsin (Mediatech) at 37° C. for 1-2 min. Afterwards, the cells were washed and resuspended in full serum medium and analyzed by a BD Accuri C6 flow cytometer (BD Biosciences).

Turning to `N=C(N)NC(=O)c1nc(Cl)c(N)nc1N` [amiloride], the “effect of endocytosis inhibitor on internalization of DOX/FA-NCl/NCa” value in the data set with MCF-7 cells is “pronounced effects in inhibiting the internalization”. In addition, the “effect of endocytosis inhibitor on uptake of Cas9/sgRNA/NC-12/PEI (AF647-Cas9)” value with U2OS.EGFP cells is “greatest reduction in Cas9 uptake”.

`CN(C)CCCN1c2ccccc2Sc2ccc(Cl)cc21` [chlorpromazine]: the “effect of endocytosis inhibitor on internalization of DOX/FA-NCl/NCa” value in the data set with MCF-7 cells is “pronounced effects in inhibiting the internalization”. Consider methyl-β-cyclodextrin, for which the “effect of endocytosis inhibitor on uptake of Cas9/sgRNA/NC-12/PEI (AF647-Cas9)” value in the data set on U2OS.EGFP cells is listed as “greatest reduction in Cas9 uptake”.

B1: NC-0: DNA NC variant with 0 nucleotides complementary to the sgRNA (nucleic acid)
DNA: GAGAAACGAGTGCGGTCACAGCTAAGCTAGATGCATCTAGCAAGCGCCGCCACTGATTTCACCGCTTCAAGCTAGATGCATCTAGCAAT
modifications: DNA nanoclew made by rolling circle amplification of circularized template, further chemistry not given here; the letters are possibly those of the target site
notes: DNA NC variant with 0 nucleotides complementary to the sgRNA
As for B1, the “resistance of DNA NC to Cas9/sgRNA degradation” value in data set [1] is reported as “resistant to Cas9/sgRNA degradation”.

B2: NC-23: DNA NC variant with 23 nucleotides complementary to the sgRNA (nucleic acid)
DNA: GGGCACGGGCAGCTTGCCGGTGGAAGCTAGATGCATCTAGCAAGCGCCGCCACTGATTTCACCGCTTCAAGCTAGATGCATCTAGCAAT
modifications: DNA nanoclew made by rolling circle amplification of circularized template, further chemistry not given here; the letters are possibly those of the target site
notes: DNA NC variant with 23 nucleotides complementary to the sgRNA
For the molecule B2, the “resistance of DNA NC to Cas9/sgRNA degradation” value in data set [1] is reported as “resistant to Cas9/sgRNA degradation”.

B3: NC-12: DNA nanoclew encoding 12 nucleotides complementary to the 5′ end of the sgRNA (nucleic acid)
DNA: GCTACCGGGCAGCTTGCATCAATAAGCTAGATGCATCTAGCAAGCGCCGCCACTGATTTCACCGCTTCAAGCTAGATGCATCTAGCAAT
modifications: Rolling circle amplification template for DNA nanoclew, further chemistry not given here; the letters are possibly those of the target site
notes: DNA nanoclew encoding 12 nucleotides complementary to the 5′ end of the sgRNA
For B3, in data set [2], the “fraction of EGFP negative cells among DNA NC variants” value is reported as “highest fraction of EGFP negative cells”.

(Values after patent US20190142744A1, “NUCLEIC ACID NANOCAGES, COMPOSITIONS, AND USES THEREOF” (North Carolina State University, priority 2015, published 2019).)
